The text below walks through data of patent US5190981A, “Formulation containing S(+) enantiomer of flurbiprofen or ketoprofen and method of use for oral administration for prevention and treatment of bone loss associated with periodontal disease” (Sepracor Inc., priority 1991, dated 1993).

Data set [1] in a line: Bioavailability of flurbiprofen enantiomers in toothpaste: five-way blinded crossover, blood levels over 24 h after toothbrushing, chiral HPLC. The settings on record: for initial plasma concentrations of each enantiomer across formulations: from toothpaste formulation to toothpaste formulation; for initial plasma concentrations of each enantiomer across formulations / accumulation of enantiomers: data not shown; for accumulation of enantiomers: repeated use. The data set is classed as in vivo, human (healthy adult volunteers). The text has this:
The purpose of this study was to show how well subjects tolerated three strengths of S(+) flurbiprofen toothpaste (1%, 0.5% and 0.25%), as well as the relationship between dose and blood level of the active isomer in comparison with an identical formulation of racemic flurbiprofen (1%) or an intermediate formulation of 80% S(+) flurbiprofen and 20% R(-) flurbiprofen (1%). A toothpaste containing one of the three concentrations of S(+) flurbiprofen, the 1% intermediate formulation or 1% racemic flurbiprofen were used in the study.
The drug is an acid and, therefore, the formulation was adjusted to pH 5.6, in order to improve buccal absorption. The formulation also contained menthol or wintergreen in order to mask the slight bitter taste of the drug. Standard formulation techniques were used.
Eight healthy adult volunteers were selected as subjects for the five-way, blinded, crossover study of flurbiprofen blood levels over a 24 hour period following toothbrushing with toothpastes containing the different concentrations of S(+) flurbiprofen and R(-) flurbiprofen. Each volunteer brushed with about 1 g of a toothpaste formulation for 1 minute followed by rinsing twice daily for 3 days. On the fourth morning, brushing with 1 g of the toothpaste formulation was repeated and blood samples were collected for subsequent analysis at -0.25, 0.25, 1, 2, 4, 8, 12, 23 and 24 hours relative to this toothbrushing episode. Each treatment period was followed by a washout interval of 4 days before the next toothpaste formulation was provided.
The concentration of the individual enantiomers was determined by HPLC on chiral-APG (5μ. 100×4 mm). The mobile phase was 1% 2-propanol in 10 mM NaH2 PO4 buffer, pH 7.0, at 0.6 ml/min. The enantiomers were detected by fluorescence monitoring with excitation at 250 nm and emission at 315 nm. The individual enantiomers were detectable down to 5-10 ng/ml. Standard and calibration curves were prepared for each set of samples and an internal standard of S(+) ibuprofen was added to all samples. Pharmacokinetic calculations were non-compartmental and employed conventional data analysis (linear trapezoidal role) to determine the concentrations or total amounts for each enantiomer and formulation that were analyzed.
The results of this study are presented as follows: 1% by weight racemic flurbiprofen (1S, 1R); 1% by weight 80% S(+) flurbiprofen, 20% R(-) flurbiprofen as a eutectic mixture (2S, 2R); 1% by weight 95% S(+) flurbiprofen, 5% R(-) flurbiprofen (3S); 0.5% by weight 95% S(+) fluriprofen, 5% R(-) flurbiprofen (4S); and 0.25% by weight 95% S(+) flurbiprofen, 5% R(-) flurbiprofen (5S). It should be noted that approximately equivalent amounts (5 mg) of S(+)flurbiprofen were administered in results denoted 1S and 4S. The results from the present study have been further compared with calculations based on results from a previous study by Stalker et al. "Bioavailability of Flurbiprofen following Buccal Administration", Pharm Res. 8, 605-608 (1991). The calculated amounts of administered enantiomer in this previous study are 5 mg buccal S(+) flurbiprofen as a mouthwash (buccal S) or 5 mg PO S(+) flurbiprofen (PO S).

The conditions of data set [2]: oral; cited from earlier work.

As for `C[C@@H](C(=O)O)c1ccc(-c2ccccc2)c(F)c1` [R(-) flurbiprofen], in data set [1], the “initial plasma concentrations of each enantiomer across formulations” value is “approximately the same”. In addition, in data set [1] (toothpaste), the accumulation of enantiomers entry is “no accumulation”.

With `C[C@H](C(=O)O)c1ccc(-c2ccccc2)c(F)c1` [S(+) flurbiprofen], the “absorption when taken orally” value in data set [2] was “readily absorbed”. Besides, the “absorption of S(+) enantiomer alone vs as racemic mixture” value in data set [1] (comparison of 1S and 4S, toothpaste) is recorded as “preferentially absorbed when administered alone in a toothpaste formulation than when administered as a racemic mixture”. The “blood concentration and persistence, toothpaste vs mouthwash or PO” value in data set [1] (equivalent amounts of S(+) flurbiprofen, e.g. 1S and 4S compared to buccal S or PO S) was “higher and its availability is more persistent when in a toothpaste formulation”. The “initial plasma concentrations of each enantiomer across formulations” value in data set [1] is “approximately the same”. Also, in data set [1] (toothpaste between 0.25% and 0.5% by weight), the “dose relationship of plasma concentrations, 0.25% to 0.5%” value is “dose dependent relationship of plasma concentrations”. Further, the “dose relationship of plasma concentrations at 1%” value in data set [1] (toothpaste, 1% by weight) is listed as “non-linear at 1% by weight”. The accumulation of enantiomers entry in data set [1] (toothpaste) was “no accumulation”.
